Results on 20 compounds are retold here after patent US20250197387A1, “BCL-XL DEGRADERS AND USES THEREOF” (Kymera Therapeutics, Inc., priority 2021, published 2025).

Molecules are shown by their SMILES.

For the assay, the target named is T1, BCL-XL (Homo sapiens, UniProt Q07817).
T1 construct: endogenous in cells; host or cells: MOLT-4
Description: BCL-XL degradation assay, western blot in MOLT-4 cells, 16 h. Type of assay: cell-based. The conditions noted are these: western blot, MOLT-4 cells, 16 h; for Dmax: read-out: Bcl-xL WB in MOLT-4 degradation 16 h: Average Dmax %; for DC50: read-out: Bcl-xL WB in MOLT-4 degradation 16 h: Mean external-Abs DC50. As for the experimental part: Compounds treatment: compounds were reconstituted in DMSO to make a stock concentration of 10 mM. MOLT-4 cells were maintained in RPMI-1640+10% FBS+1% Penicillin-Streptomycin. Cells were seeded into 6-well plates in 2 mL at the seeding density of 2e6 cells/mL. Compounds were added to the cells to a final concentration ranging 0.02-10 μM. After 16 hr incubation at 37° C., in a CO2 incubator, cells were collected in an Eppendorf tube and centrifuged at 200×g for 5 minutes, the supernatant removed and pellets washed with ice-cold PBS, centrifuged and supernatant removed again. Then. 50 μl of pre-chilled RIPA lysis buffer (Boston BioProducts. BP-115D) with protease and phosphatase inhibitors (Roche Applied Science. #04906837001 and #04693116001) was added into cell pellet to lyze the cells for 20 minutes under 4° C. Cell lysates were spin at 13000 rpm for 10 minutes. Supernatants were collected and protein concentration was measured by BCA assay kit (Solarbio. PC0020-500) following the manufacturer's protocol. Samples' final protein concentration was adjusted to 3.75 μg/uL with the RIPA lysis buffer based on BCA assay results and 4× loading buffer (Invitrogen. NP0007) was added into the samples and samples were heated to 85° C., for 10 min and then let cool at RT. Samples were centrifuged at 13000 rpm for 10 min and then loaded into a 26-well NuPAGER. Novex 4-12% Bis-Tris Midi Gel (Invitrogen. WG1403BOX) and run in NuPAGER MOPS SDS Running Buffer (Invitrogen. NP0001) for 180 minutes at 70 V into a XCell4 SureLock™ Midi-Cell Runner (Invitrogen. WR0100). Gel were transferred using the Invitrogen iBlot gel transfer device (Invitrogen. IB21001) and the nitrocellulose transfer stacks (Invitrogen, IB23001) with Program PO for 9 minutes. The membrane was then blocked with 5% bovin serum albumin for 1 hr at RT, then incubated with primary antibodies diluted in blocking buffer (LI-COR. 927-60001) and shake at 4° C., overnight. The primary antibodies were anti-BCL-xL antibody (CST. 2762:1:1000), anti-beta-actin (CST. 3700; 1:5000) and anti-GAPDH (CST. 97166:1:5000). Membranes were then washed three times with PBST for 15 minutes at RT. Secondary antibodies IR-Dye 680 CW Goat anti Mouse IgG (LI-COR. 926-68070) and IR-Dye 800 CW Goat anti Rabbit IgG (LI-COR. 926-32211) were diluted at a ratio of 1:10000 into PBST and membranes incubated for 1 hour at RT. Membranes were then washed three times with PBST for 15 minutes at RT. The western blot images were obtained using Odyssey Imaging System and quantified using Image Studio Lite Ver 5.2 software.
The letter codes for BCL-XL DC50 include: A (<0.01 μM); B (0.01-0.1 μM); C (>[…]); D (>0.5-1.0 μM); and E (>1.0 μM). The letter codes for Dmax % include A (>75%); B (50 to 75%); C (<50%).
A general note: A western blot detects proteins with antibodies after separation by electrophoresis.

T1 sequence (Q07817 whole entry): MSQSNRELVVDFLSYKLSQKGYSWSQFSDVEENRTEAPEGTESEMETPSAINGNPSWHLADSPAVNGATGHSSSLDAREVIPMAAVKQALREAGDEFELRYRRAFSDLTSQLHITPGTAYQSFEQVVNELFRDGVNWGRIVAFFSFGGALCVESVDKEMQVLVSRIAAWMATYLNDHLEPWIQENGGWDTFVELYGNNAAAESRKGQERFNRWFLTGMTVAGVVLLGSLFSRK

For `Cc1ncsc1-c1ccc([C@H](C)NC(=O)[C@@H]2C[C@@H](O)CN2C(=O)[C@@H](NC(=O)CCC2(Cn3ncc(-c4ccc(N5CCc6cccc(C(=O)Nc7nc8ccccc8s7)c6C5)nc4C(=O)O)c3C)CCCCC2)C(C)(C)C)cc1` [I-128, 6-(8-(benzo[d]thiazol-2-ylcarbamoyl)-3,4-dihydroisoquinolin-2 (1H)-yl)-3-(1-((1-(3-(((S)-1-((2S,4R)-4-hydroxy-2-(((S)-1-(4-(4-methylthiazol-5-yl)phenyl)ethyl)carbamoyl)pyrrolidin-1-yl)-3,3-dimethyl-1-oxobutan-2-yl)amino)-3-oxopropyl)cyclohexyl)methyl)-5-methyl-1H-pyrazol-4-yl)picolinic acid], the Dmax is under 50% and the DC50 is over 1 µM.

In the case of `Cc1ncsc1-c1ccc([C@H](C)NC(=O)[C@@H]2C[C@@H](O)CN2C(=O)[C@@H](NC(=O)[C@H]2CC[C@H](CC(=O)N3CCN(CC[C@H](CSc4ccccc4)Nc4ccc(S(=O)(=O)NC(=O)c5ccc(N6CCN(CC7=C(c8ccc(Cl)cc8)CCC(C)(C)C7)CC6)cc5)cc4S(=O)(=O)C(F)(F)F)CC3)CC2)C(C)(C)C)cc1` [I-391], the maximal degradation (Dmax) is over 75% and the DC50 was 0.01 to 0.1 µM.

For the compound `C#Cc1ccc([C@H](C)NC(=O)[C@@H]2C[C@@H](O)CN2C(=O)[C@@H](NC(=O)N2CCC3(CCC(C(=O)N4CCN(CC[C@H](CSc5ccccc5)Nc5ccc(S(=O)(=O)NC(=O)c6ccc(N7CCN(CC8=C(c9ccc(Cl)cc9)CCC(C)(C)C8)CC7)cc6)cc5S(=O)(=O)C(F)(F)F)CC4)CC3)CC2)C(C)(C)C)cc1` [I-127], the Dmax was under 50% and the DC50 is over 1 µM.

On to `Cc1ncsc1-c1ccc(CNC(=O)[C@@H]2C[C@@H](O)CN2C(=O)C(c2cc(OCCCCCCCCC(=O)N(C)CC#Cc3ccc(OCCCc4sc(N5CCc6cccc(C(=O)Nc7nc8ccccc8s7)c6C5)nc4C(=O)O)c(F)c3)no2)C(C)C)cc1` (stereo partly shown) [I-88], for which the Dmax was over 75% and the half-maximal degradation concentration (DC50) lay within 0.01 to 0.1 µM.

With `Cc1cc(N(CCN(C)C(=O)CCCOc2cc(-c3scnc3C)ccc2CNC(=O)[C@@H]2C[C@@H](O)CN2C(=O)[C@@H](NC(=O)C2(F)CC2)C(C)(C)C)c2ccc(-c3cnn(CC4CCCCC4)c3C)c(C(=O)O)n2)nnc1Nc1nc2ccccc2s1` [I-102], the Dmax fell in the range of 50 to 75% and the DC50 is over 1 µM.

Regarding `Cc1ncsc1-c1ccc([C@H](C)NC(=O)[C@@H]2C[C@@H](O)CN2C(=O)[C@@H](NC(=O)CCc2cccc(F)c2OCCCc2sc(N3CCc4cccc(C(=O)Nc5nc6ccccc6s5)c4C3)nc2C(=O)O)C(C)(C)C)cc1` [I-30], the Dmax is under 50% and the DC50 is over 1 µM.

On to `Cc1ncsc1-c1ccc(CNC(=O)[C@@H]2C[C@@H](O)CN2C(=O)[C@@H](NC(=O)C2(F)CC2)C(C)(C)C)c(OCCCCCCCC(=O)N(C)CCCc2cccc(F)c2OCCCc2sc(N3CCc4cccc(C(=O)Nc5nc6ccccc6s5)c4C3)nc2C(=O)O)c1` [I-14], for which the Dmax is over 75% and the DC50 fell in the range of 0.1 to 0.5 µM.

Consider `Cc1ncsc1-c1ccc(CNC(=O)[C@@H]2C[C@@H](O)CN2C(=O)[C@@H](NC(=O)C2(F)CC2)C(C)(C)C)c(O[C@H]2CC[C@H](N3CCN(CC[C@H](CSc4ccccc4)Nc4ccc(S(=O)(=O)NC(=O)c5ccc(N6CCN(CC7=C(c8ccc(Cl)cc8)CCC(C)(C)C7)CC6)cc5)cc4S(=O)(=O)C(F)(F)F)CC3)CC2)c1` (single isomer, unassigned) [I-114], for which the greatest degradation seen (Dmax) was under 50% and the DC50 is over 1 µM.

Consider `Cc1ncsc1-c1ccc(CNC(=O)[C@@H]2C[C@@H](O)CN2C(=O)[C@@H](NC(=O)C2(F)CC2)C(C)(C)C)c(OCCCCCCCC(=O)N(C)CC#Cc2cccc(F)c2OCCCc2sc(N3CCc4cccc(C(=O)Nc5nc6ccccc6s5)c4C3)nc2C(=O)O)c1` [I-20], for which the Dmax is over 75% and the DC50 lay in the range of 0.1 to 0.5 µM.

`Cc1cc(N(CCN(C)C(=O)CCCCCCCCOc2cc(-c3scnc3C)ccc2CNC(=O)[C@@H]2C[C@@H](O)CN2C(=O)[C@@H](NC(=O)C2(F)CC2)C(C)(C)C)c2ccc(-c3cnn(CC4CCCCC4)c3C)c(C(=O)O)n2)nnc1Nc1nc2ccccc2s1` [I-104]: the Dmax is under 50% and the DC50 was over 1 µM.

Turning to `Cc1ncsc1-c1ccc([C@H](C)NC(=O)[C@@H]2C[C@@H](O)CN2C(=O)[C@@H](NC(=O)CCCCCCCS(=O)(=O)NC(=O)c2ccc(N3CCN(CC4=C(c5ccc(Cl)cc5)CCC(C)(C)C4)CC3)cc2)C(C)(C)C)cc1` [I-107], the Dmax lay in the range of 50 to 75% and the DC50 was over 1 µM.

On to `Cc1ncsc1-c1ccc(CNC(=O)[C@@H]2C[C@@H](O)CN2C(=O)C(c2cc(OCCCC(=O)N3CCN(CC[C@H](CSc4ccccc4)Nc4ccc(S(=O)(=O)NC(=O)c5ccc(N6CCN(CC7=C(c8ccc(Cl)cc8)CCC(C)(C)C7)CC6)cc5)cc4S(=O)(=O)C(F)(F)F)CC3)no2)C(C)C)cc1` (stereo partly shown) [I-38], for which the Dmax fell in the range of 50 to 75% and the DC50 lay in the range of 0.1 to 0.5 µM.

As for `Cc1ncsc1-c1ccc([C@H](C)NC(=O)[C@@H]2C[C@@H](O)CN2C(=O)[C@@H](NC(=O)C[C@H]2CC[C@H](C(=O)N3CCN(CC[C@H](CSc4ccccc4)Nc4ccc(S(=O)(=O)NC(=O)c5ccc(N6CCN(CC7=C(c8ccc(Cl)cc8)CCC(C)(C)C7)CC6)cc5)cc4S(=O)(=O)C(F)(F)F)CC3)CC2)C(C)(C)C)cc1` [I-390], the Dmax was over 75% and the DC50 was in the range of 0.01 to 0.1 µM.

Take `Cc1ncsc1-c1ccc([C@H](C)NC(=O)[C@@H]2C[C@@H](O)CN2C(=O)[C@@H](NC(=O)CCCCCS(=O)(=O)NC(=O)c2ccc(N3CCN(CC4=C(c5ccc(Cl)cc5)CCC(C)(C)C4)CC3)cc2)C(C)(C)C)cc1` [I-106]: the Dmax was under 50% and the DC50 is over 1 µM.

As to `Cc1ncsc1-c1ccc(CNC(=O)[C@@H]2C[C@@H](O)CN2C(=O)[C@@H](NC(=O)CCOCCOCCOCC#Cc2ccc(OCCCc3sc(N4CCc5cccc(C(=O)Nc6nc7ccccc7s6)c5C4)nc3C(=O)O)cc2)C(C)(C)C)cc1` [I-385], the Dmax was over 75% and the half-maximal degradation concentration (DC50) was in the range of 0.01 to 0.1 µM.

Consider `Cc1ncsc1-c1ccc(CNC(=O)[C@@H]2C[C@@H](O)CN2C(=O)[C@@H](NC(=O)C2(F)CC2)C(C)(C)C)c(O[C@H]2CC[C@@H](C(=O)N3CCN(CC[C@H](CSc4ccccc4)Nc4ccc(S(=O)(=O)NC(=O)c5ccc(N6CCN(CC7=C(c8ccc(Cl)cc8)CCC(C)(C)C7)CC6)cc5)cc4S(=O)(=O)C(F)(F)F)CC3)CC2)c1` [I-90], for which the Dmax was under 50% and the DC50 is over 1 µM.

Turning to `Cc1ncsc1-c1ccc([C@H](C)NC(=O)[C@@H]2C[C@@H](O)CN2C(=O)[C@@H](NC(=O)CCCC(=O)N2CCN(CC[C@H](CSc3ccccc3)Nc3ccc(S(=O)(=O)NC(=O)c4ccc(N5CCN(CC6=C(c7ccc(Cl)cc7)CCC(C)(C)C6)CC5)cc4)cc3S(=O)(=O)C(F)(F)F)CC2)C(C)(C)C)cc1` [I-86], the Dmax was 50 to 75% and the DC50 is over 1 µM.

`Cc1ncsc1-c1ccc([C@H](C)NC(=O)[C@@H]2C[C@@H](O)CN2C(=O)[C@@H](NC(=O)C2(F)CC2)C(C)(C)C)c(OCC(=O)N2CCN(CC[C@H](CSc3ccccc3)Nc3ccc(S(=O)(=O)NC(=O)c4ccc(N5CCN(CC6=C(c7ccc(Cl)cc7)CCC(C)(C)C6)CC5)cc4)cc3S(=O)(=O)C(F)(F)F)CC2)c1` [I-112]: the maximal degradation (Dmax) lay within 50 to 75% and the DC50 fell in the range of 0.5 to 1 µM.

On to `Cc1ncsc1-c1ccc(CNC(=O)[C@@H]2C[C@@H](O)CN2C(=O)[C@@H](NC(=O)CCCC(=O)N(C)CCN(C)c2cc3c(c(C(=O)Nc4nc5ccccc5s4)c2)CN(c2ccc(-c4cnn(CC5CCCCC5)c4C)c(C(=O)O)n2)CC3)C(C)(C)C)cc1` [I-109], for which the Dmax is under 50% and the half-maximal degradation concentration (DC50) is over 1 µM.

Take `Cc1cc(N(CCN(C)C(=O)CCCCCC(=O)N[C@H](C(=O)N2C[C@H](O)C[C@H]2C(=O)N[C@@H](C)c2ccc(-c3scnc3C)cc2)C(C)(C)C)c2ccc(-c3cnn(CC4CCCCC4)c3C)c(C(=O)O)n2)nnc1Nc1nc2ccccc2s1` [I-100]: the Dmax was in the range of 50 to 75% and the DC50 lay in the range of 0.1 to 0.5 µM.

In general, Dmax refers to the largest share of the target that was removed. In general, DC50 refers to the concentration giving 50% degradation.
